Values quoted from earlier work as cited in US20170027865A1, “Dry Pharmaceutical Compositions for Topical Delivery of Oral Medications, Nasal Delivery and to Treat Ear Disorders” (CMPD LICENSING LLC, priority 2013, published 2017).

Assays:
Chlamydia psittaci = conditions: Chlamydia psittaci; Gram: n/a
Clostridium difficile = conditions: Gram: anaer
[1] = system: Methicillin Resistant Staph aureus (MRSA); conditions: Gram: pos
Citrobacter diversus = conditions: Gram: neg
Corynebacterium jeikeium = conditions: Gram: pos
Pseudomonas fluorescens = conditions: Gram: neg
Chlamydia trachomatis = conditions: Gram: n/a
Enterobacter sakazakii = conditions: Gram: neg
Haemophilus influenzae = conditions: Gram: neg
Bartonella bacilliformis = conditions: Gram: neg
Streptococcus pyogenes = conditions: Gram: pos
Morganella morganii = conditions: Gram: neg
Enterobacter aerogenes = conditions: Gram: neg
Campylobacter jejuni = conditions: Gram: neg
Acinetobacter lwoffii = conditions: Gram: neg
Brucella species = conditions: Brucella species; Gram: neg
Enterobacter cloacae = conditions: Gram: neg
Streptococcus agalactiae = conditions: Gram: pos
Neisseria meningitidis = conditions: Gram: neg
Acinetobacter baumannii = conditions: Gram: neg
[2] = system: Staphylococcus aureus (MSSA); conditions: Gram: pos
[3] = system: Staphylococcus epidermidis; conditions: Gram: pos
Legionella pneumophila = conditions: Legionella pneumophila; Gram: neg
[4] = system: Acinetobacter calcoaceticus; conditions: Gram: neg
Enterococcus faecium = conditions: Gram: pos
Providencia rettgeri = conditions: Gram: neg
Moraxella catarrhalis = conditions: Gram: neg
Klebsiella pneumoniae = conditions: Gram: neg
Vibrio cholerae = conditions: Gram: neg
Serratia marcescens = conditions: Gram: neg
Clostridium perfringens = conditions: Clostridium perfringens; Gram: anaer
Pseudomonas aeruginosa = conditions: Gram: neg
Chlamydia pneumoniae = conditions: Gram: n/a
Proteus vulgaris = conditions: Gram: neg
Citrobacter freundii = conditions: Gram: neg
Rickettsiae = conditions: Rickettsiae; Gram: neg
Enterococcus faecalis = conditions: Gram: pos
Providencia stuartii = conditions: Gram: neg
Escherichia coli = conditions: Gram: neg
Bordetella pertussis = conditions: Gram: neg
Francisella tularensis = conditions: Francisella tularensis; Gram: neg
Streptococcus pneumoniae = conditions: Gram: pos
Mycoplasma pneumoniae = conditions: Gram: n/a
[5] = system: Klebsiella (Calymmatobacterium) granulomatis; conditions: Gram: neg
Proteus mirabilis = conditions: Gram: neg
Klebsiella oxytoca = conditions: Gram: neg
Bacteroides fragilis = conditions: Gram: anaer
Shigella sonnei = conditions: Gram: neg
Yersinia pestis = conditions: Yersinia pestis; Gram: neg
Neisseria gonorrhoeae = conditions: Gram: neg
Shigella boydii = conditions: Gram: neg
Shigella dysenteriae = conditions: Gram: neg
Peptostreptococcus = conditions: Gram: pos
[6] = system: Viridans group streptococci; conditions: Gram: pos
Diphtheroids = conditions: Gram: pos
Haemophilus ducreyi = conditions: Gram: neg
Shigella flexneri = conditions: Gram: neg
[7] = system: Corynebacterium urealyticum; conditions: Gram: pos
[8] = system: Haemophilus parainfluenzae; conditions: Gram: neg

For `CC[C@H]1OC(=O)[C@H](C)[C@@H](O[C@H]2C[C@@](C)(OC)[C@@H](O)[C@H](C)O2)[C@H](C)[C@@H](O[C@@H]2O[C@H](C)C[C@H](N(C)C)[C@H]2O)[C@](C)(O)C[C@@H](C)CN(C)[C@H](C)[C@@H](O)[C@]1(C)O` [Azithromycin, azithromycin], the Expected coverage (Chlamydia psittaci) is given as “yes”, the Expected coverage (Clostridium difficile) is given as “no” and the Expected coverage [1] is given as “no”. The Expected coverage (Citrobacter diversus) was “no”, the Expected coverage (Corynebacterium jeikeium) was “no” and the Expected coverage (Pseudomonas fluorescens) was “no”. For the same compound, the Expected coverage (Chlamydia trachomatis) was “yes”, the Expected coverage (Enterobacter sakazakii) was “no” and the Expected coverage (Haemophilus influenzae) was “yes”. For the same compound, the Expected coverage (Bartonella bacilliformis) was “yes”, the Expected coverage (Streptococcus pyogenes) was “yes” and the Expected coverage (Morganella morganii) was “no”. The Expected coverage (Enterobacter aerogenes) was “no”, the Expected coverage (Campylobacter jejuni) was “yes” and the Expected coverage (Acinetobacter lwoffii) was “no”. For the same compound, the Expected coverage (Brucella species) was “no”, the Expected coverage (Enterobacter cloacae) was “no” and the Expected coverage (Streptococcus agalactiae) was “yes”. The Expected coverage (Neisseria meningitidis) was “yes”, the Expected coverage (Acinetobacter baumannii) was “no” and the Expected coverage [2] was “yes”. For the same compound, the Expected coverage [3] was “yes”, the Expected coverage (Legionella pneumophila) was “yes” and the Expected coverage [4] was “no”. The Expected coverage (Enterococcus faecium) was “no”, the Expected coverage (Providencia rettgeri) was “no” and the Expected coverage (Moraxella catarrhalis) was “yes”. The Expected coverage (Klebsiella pneumoniae) was “no”, the Expected coverage (Vibrio cholerae) was “yes” and the Expected coverage (Serratia marcescens) was “no”. The Expected coverage (Clostridium perfringens) was “no”, the Expected coverage (Pseudomonas aeruginosa) was “no” and the Expected coverage (Chlamydia pneumoniae) was “yes”. The Expected coverage (Proteus vulgaris) was “no”, the Expected coverage (Citrobacter freundii) was “no” and the Expected coverage (Rickettsiae) was “yes”. The Expected coverage (Enterococcus faecalis) was “no”, the Expected coverage (Providencia stuartii) was “no” and the Expected coverage (Escherichia coli) was “no”. For the same compound, the Expected coverage (Bordetella pertussis) was “yes”, the Expected coverage (Francisella tularensis) was “no” and the Expected coverage (Streptococcus pneumoniae) was “yes”. For the same compound, the Expected coverage (Mycoplasma pneumoniae) was “yes”, the Expected coverage [5] was “no” and the Expected coverage (Proteus mirabilis) was “no”. The Expected coverage (Klebsiella oxytoca) was “no” and the Expected coverage (Bacteroides fragilis) was “no”.
In the case of `C[C@@H]1[C@H](O)[C@@H](C)/C=C/C=C/CC/C=C/C=C/C=C/C=C/C(O[C@H]2O[C@H](C)[C@@H](O)[C@H](N)[C@@H]2O)CC2O[C@](O)(CC(O)C(O)CCC(O)CC(O)CC(O)CC(=O)O[C@H]1C)CC(O)C2C(=O)O` (some centres unmarked) [Nystatin, nystatin], the Expected coverage (Candida species) is given as “yes”.
For `NC[C@H]1O[C@H](O[C@H]2[C@H](O)[C@@H](O[C@H]3O[C@H](CO)[C@@H](O)[C@H](N)[C@H]3O)[C@H](N)C[C@@H]2N)[C@H](N)C[C@@H]1O` [Tobramycin, tobramycin], the Expected coverage (Chlamydia psittaci) is given as “no”, the Expected coverage (Clostridium difficile) is given as “no” and the Expected coverage [1] is given as “no”. The Expected coverage (Citrobacter diversus) was “yes”, the Expected coverage (Corynebacterium jeikeium) was “no” and the Expected coverage (Pseudomonas fluorescens) was “yes”. The Expected coverage (Shigella sonnei) was “yes”, the Expected coverage (Chlamydia trachomatis) was “no” and the Expected coverage (Enterobacter sakazakii) was “yes”. The Expected coverage (Haemophilus influenzae) was “yes”, the Expected coverage (Yersinia pestis) was “yes” and the Expected coverage (Streptococcus pyogenes) was “no”. The Expected coverage (Neisseria gonorrhoeae) was “no”, the Expected coverage (Enterobacter aerogenes) was “yes” and the Expected coverage (Shigella boydii) was “yes”. For the same compound, the Expected coverage (Shigella dysenteriae) was “yes”, the Expected coverage (Campylobacter jejuni) was “yes” and the Expected coverage (Acinetobacter lwoffii) was “no”. The Expected coverage (Enterobacter cloacae) was “yes”, the Expected coverage (Streptococcus agalactiae) was “no” and the Expected coverage (Neisseria meningitidis) was “no”. The Expected coverage (Acinetobacter baumannii) was “no”, the Expected coverage [2] was “no” and the Expected coverage (Peptostreptococcus) was “no”. For the same compound, the Expected coverage [3] was “no”, the Expected coverage (Legionella pneumophila) was “no” and the Expected coverage [4] was “no”. For the same compound, the Expected coverage (Enterococcus faecium) was “no”, the Expected coverage [6] was “no” and the Expected coverage (Diphtheroids) was “no”. For the same compound, the Expected coverage (Moraxella catarrhalis) was “yes”, the Expected coverage (Klebsiella pneumoniae) was “yes” and the Expected coverage (Vibrio cholerae) was “no”. The Expected coverage (Serratia marcescens) was “yes”, the Expected coverage (Clostridium perfringens) was “no” and the Expected coverage (Pseudomonas aeruginosa) was “yes”. For the same compound, the Expected coverage (Chlamydia pneumoniae) was “no”, the Expected coverage (Proteus vulgaris) was “yes” and the Expected coverage (Citrobacter freundii) was “yes”. The Expected coverage (Haemophilus ducreyi) was “yes”, the Expected coverage (Enterococcus faecalis) was “no” and the Expected coverage (Escherichia coli) was “yes”. The Expected coverage (Shigella flexneri) was “yes”, the Expected coverage [7] was “no” and the Expected coverage (Bordetella pertussis) was “no”. The Expected coverage (Streptococcus pneumoniae) was “no”, the Expected coverage (Mycoplasma pneumoniae) was “no” and the Expected coverage [5] was “yes”. For the same compound, the Expected coverage (Proteus mirabilis) was “yes”, the Expected coverage (Klebsiella oxytoca) was “yes” and the Expected coverage (Bacteroides fragilis) was “no”.
For colistimethate, the Expected coverage (Chlamydia psittaci) is listed as “no”, the Expected coverage (Clostridium difficile) is listed as “no” and the Expected coverage [1] is listed as “no”. The Expected coverage (Corynebacterium jeikeium) was “no”, the Expected coverage (Pseudomonas fluorescens) was “yes” and the Expected coverage (Chlamydia trachomatis) was “no”. The Expected coverage (Enterobacter sakazakii) was “yes”, the Expected coverage (Streptococcus pyogenes) was “no” and the Expected coverage (Neisseria gonorrhoeae) was “no”. The Expected coverage (Enterobacter aerogenes) was “yes”, the Expected coverage (Brucella species) was “no” and the Expected coverage (Enterobacter cloacae) was “yes”. The Expected coverage (Streptococcus agalactiae) was “no”, the Expected coverage (Neisseria meningitidis) was “no” and the Expected coverage [2] was “no”. For the same compound, the Expected coverage (Peptostreptococcus) was “no”, the Expected coverage [3] was “no” and the Expected coverage (Legionella pneumophila) was “no”. For the same compound, the Expected coverage (Enterococcus faecium) was “no”, the Expected coverage (Providencia rettgeri) was “no” and the Expected coverage [6] was “no”. The Expected coverage (Diphtheroids) was “no”, the Expected coverage (Moraxella catarrhalis) was “no” and the Expected coverage (Klebsiella pneumoniae) was “yes”. For the same compound, the Expected coverage (Vibrio cholerae) was “no”, the Expected coverage (Serratia marcescens) was “no” and the Expected coverage (Pseudomonas aeruginosa) was “yes”. For the same compound, the Expected coverage (Chlamydia pneumoniae) was “no”, the Expected coverage (Proteus vulgaris) was “no” and the Expected coverage (Enterococcus faecalis) was “no”. The Expected coverage (Providencia stuartii) was “no”, the Expected coverage (Escherichia coli) was “yes” and the Expected coverage [7] was “no”. The Expected coverage (Bordetella pertussis) was “no”, the Expected coverage (Streptococcus pneumoniae) was “no” and the Expected coverage (Mycoplasma pneumoniae) was “no”. For the same compound, the Expected coverage [5] was “yes”, the Expected coverage (Proteus mirabilis) was “no” and the Expected coverage (Klebsiella oxytoca) was “yes”. The Expected coverage (Bacteroides fragilis) was “no” and the Expected coverage [8] was “no”.
